Measured values taken from publication PMC9398180 (Molecular Cancer Therapeutics, 2021).

What was measured:
mouse LMP7 = mouse LMP7 (Mus musculus, UniProt O09061+P28063); assay: Cellular LMP7 activity in mouse P3X63Ag8.653 cells; format: cell-based
primary human cells = assay: BioMAP Diversity PLUS Panel for Broad Phenotypic Profiling; format: cell-based
[1] = biological target: immunoproteasome subunit MECL-1 (Homo sapiens, UniProt P40306+P49720); assay: Cell-free proteasome subunit peptide cleavage assay, MECL-1; format: biochemical
[2] = biological target: immunoproteasome subunit LMP2 (Homo sapiens, UniProt P28065+P40306); assay: Cell-free proteasome subunit peptide cleavage assay, LMP2; format: biochemical
[3] = biological target: constitutive proteasome subunit β1 (Homo sapiens, UniProt P28072+Q99436); assay: Cell-free proteasome subunit peptide cleavage assay, β1; format: biochemical
[4] = biological target: constitutive proteasome subunit β2 (Homo sapiens, UniProt P49720+Q99436); assay: Cell-free proteasome subunit peptide cleavage assay, β2; format: biochemical

SMILES | IC50 (mouse LMP7) [nM] | cytotoxicity toward primary human B cells, PBMCs, mononuclear cells, and venular endothelial cells (primary human cells; 33 nmol/L) | proliferation of primary human coronary artery smooth muscle cells, endothelial cells, fibroblasts, and T cells (primary human cells; non-cytotoxic concentration of 11 nmol/L) | IC50 [1] [nM] | IC50 [2] [nM] | IC50 [3] [nM] | IC50 [4] [nM]
CC(C)C[C@H](NC(=O)[C@H](Cc1ccccc1)NC(=O)c1cnccn1)B(O)O [Bortezomib] | 5.3 | – | – | – | – | – | –
CC(C)C[C@H](NC(=O)CNC(=O)c1cc(Cl)ccc1Cl)B(O)O [Ixazomib] | – | cytotoxic | reduced proliferation | 5470 | 0.9 ± 0.2 | 28 ± 22 | > 30000
